# Experimental data from patent publication US4160829A, “Antibacterial 1,2,4-oxadiazolylacetamido cephalosporins” (Gist-Brocades N.V., priority 1972, dated 1979).
# Assays:
# [1] = test system: Salm.typh. R 172; assay: agar serial dilution test; assay type: cell-based; conditions: 24 h, read-out: minimal inhibitory concentration (MIC)
# [2] = test system: Pseud.aerug. 2396; assay: agar serial dilution test; assay type: cell-based; conditions: agar serial dilution, 24 hours, 37° C.; read-out: minimal inhibitory concentration (MIC)
# [3] = test system: Staph.aureus A 355; assay: agar serial dilution test; conditions: Staphylococcus aureus, A355, 24 h, read-out: minimal inhibitory concentration (MIC), agar serial dilution, 24 hours, 37° C.; penicillinase-producing strain
# [4] = test system: Prot.rettg. A 821; assay: agar serial dilution test; assay type: cell-based, Proteus rettgeri; conditions: Providencia rettgeri, 24 h, agar serial dilution, 24 hours, 37° C.; read-out: minimal inhibitory concentration (MIC)
# [5] = test system: Pseud.aerug. H 10; assay: agar serial dilution test; assay type: cell-based; conditions: agar serial dilution, 24 hours, 37° C.; read-out: minimal inhibitory concentration (MIC)
# [6] = test system: Staph.aureus A 2000; assay: micro serial dilution test; assay type: cell-based, Staphylococcus aureus; conditions: Staphylococcus aureus, A2000, 18 h, micro serial dilution (in brackets), about 18 hours, 30° C. or 37° C.; read-out: minimal inhibitory concentration (MIC)
# [7] = test system: Strep. faec. L 80; assay: agar serial dilution test; assay type: cell-based, Streptococcus faecalis; conditions: Enterococcus faecalis; agar serial dilution, 24 hours, 37° C.; read-out: minimal inhibitory concentration (MIC)
# [8] = test system: Bruc. Suis A 2126; assay: agar serial dilution test; assay type: cell-based; conditions: Brucella suis, 24 h, read-out: minimal inhibitory concentration (MIC)
# [9] = test system: Prot.mirab. A 1200; assay: micro serial dilution test; assay type: cell-based; conditions: Proteus mirabilis; micro serial dilution (in brackets), about 18 hours, 30° C. or 37° C.; read-out: minimal inhibitory concentration (MIC)
# [10] = test system: Staph.aureus A 2001; assay: micro serial dilution test; assay type: cell-based, Staphylococcus aureus; conditions: Staphylococcus aureus, A2001, 18 h, micro serial dilution (in brackets), about 18 hours, 30° C. or 37° C.; read-out: minimal inhibitory concentration (MIC)
# [11] = test system: Kleb.pneum. A 809; assay: agar serial dilution test; assay type: cell-based, Klebsiella pneumoniae; conditions: Klebsiella pneumoniae; agar serial dilution, 24 hours, 37° C.; read-out: minimal inhibitory concentration (MIC)
# [12] = test system: Staph.aureus A 321; assay: agar serial dilution test; assay type: cell-based, Staphylococcus aureus; conditions: Staphylococcus aureus, A321, 24 h, agar serial dilution, 24 hours, 37° C.; read-out: minimal inhibitory concentration (MIC)
# [13] = test system: Sarc. lutea ATCC 9341; assay: agar serial dilution test; assay type: cell-based; conditions: Micrococcus luteus, ATCC9341, 24 hours, 37° C., read-out: minimal inhibitory concentration (MIC)
# [14] = test system: Actinob.equ. T 3; assay: agar serial dilution test; assay type: cell-based; conditions: 24 hours, 37° C., read-out: minimal inhibitory concentration (MIC)
# [15] = test system: Prot.mirab. H 3; assay: agar serial dilution test; assay type: cell-based, Proteus mirabilis; conditions: Proteus mirabilis; agar serial dilution, 24 hours, 37° C.; read-out: minimal inhibitory concentration (MIC)
# [16] = test system: Esch.coli U 20; assay: agar serial dilution test; assay type: cell-based, Escherichia coli; conditions: Escherichia coli, U20; agar serial dilution, 24 hours, 37° C.; read-out: minimal inhibitory concentration (MIC)
# [17] = test system: Dipl.pneum. L 54; assay: agar serial dilution test; assay type: cell-based, Diplococcus pneumoniae; conditions: Streptococcus pneumoniae; agar serial dilution, 24 hours, 37° C.; read-out: minimal inhibitory concentration (MIC)
# [18] = test system: Prot.mirab. A 1200; assay: agar serial dilution test; assay type: cell-based, Proteus mirabilis; conditions: Proteus mirabilis, 24 h, agar serial dilution, 24 hours, 37° C.; read-out: minimal inhibitory concentration (MIC)
# [19] = test system: Prot.morg. 2241; assay: agar serial dilution test; assay type: cell-based; conditions: 24 h, agar serial dilution, 24 hours, 37° C.; read-out: minimal inhibitory concentration (MIC)
# [20] = test system: Staph.aureus A 355; assay: micro serial dilution test; assay type: cell-based, Staphylococcus aureus; conditions: Staphylococcus aureus, read-out: minimal inhibitory concentration (MIC)
# [21] = test system: Past.multo. A 723; assay: agar serial dilution test; assay type: cell-based, Pasteurella multocida; conditions: Pasteurella multocida; agar serial dilution, 24 hours, 37° C.; read-out: minimal inhibitory concentration (MIC)
# [22] = test system: Staph.aureus A 2001; assay: agar serial dilution test; assay type: cell-based, Staphylococcus aureus; conditions: Staphylococcus aureus, A2001, 24 h, agar serial dilution, 24 hours, 37° C.; read-out: minimal inhibitory concentration (MIC)
# [23] = test system: Salm.dubl. P 43; assay: agar serial dilution test; assay type: cell-based, Salmonella dublin; conditions: Salmonella enterica; agar serial dilution, 24 hours, 37° C.; read-out: minimal inhibitory concentration (MIC)
# [24] = test system: Staph.aureus A 2000; assay: agar serial dilution test; assay type: cell-based, Staphylococcus aureus; conditions: Staphylococcus aureus, A2000, 24 h, agar serial dilution, 24 hours, 37° C.; read-out: minimal inhibitory concentration (MIC)
# [25] = test system: Pseud.aerug. Wyeth A 1058; assay: agar serial dilution test; assay type: cell-based; conditions: agar serial dilution, 24 hours, 37° C.; read-out: minimal inhibitory concentration (MIC)
# [26] = test system: Strep.haem A 1088; assay: agar serial dilution test; assay type: cell-based, Streptococcus haemolyticus; conditions: Streptococcus, A1088, 24 hours, 37° C., read-out: minimal inhibitory concentration (MIC)
# [27] = test system: Prot.mirab. L 93; assay: agar serial dilution test; assay type: cell-based, Proteus mirabilis; conditions: Proteus mirabilis; agar serial dilution, 24 hours, 37° C.; read-out: minimal inhibitory concentration (MIC)
# [28] = test system: Bac.Subt.ATCC 6633; assay: agar serial dilution test; assay type: cell-based, Bacillus subtilis; conditions: Bacillus subtilis, ATCC6633, 24 h, agar serial dilution, 24 hours, 37° C.; read-out: minimal inhibitory concentration (MIC)
# [29] = test system: Prot.mirab. H 3; assay: micro serial dilution test; assay type: cell-based; conditions: Proteus mirabilis, 18 h, read-out: minimal inhibitory concentration (MIC)
# [30] = test system: Haem.infl. A 1030; assay: micro serial dilution test; assay type: cell-based; conditions: 18 h, read-out: minimal inhibitory concentration (MIC)
# [31] = test system: Pseud.aerug. 2396; assay: micro serial dilution test; assay type: cell-based; conditions: 18 h, read-out: minimal inhibitory concentration (MIC)
# [32] = test system: Esch.coli U 20; assay: micro serial dilution test; assay type: cell-based; conditions: Escherichia coli, U20, 18 h, read-out: minimal inhibitory concentration (MIC)
# [33] = test system: Pseud.aerug. Wyeth A 1058; assay: micro serial dilution test; assay type: cell-based; conditions: 18 h, read-out: minimal inhibitory concentration (MIC)
# [34] = test system: Prot.rettg. A 821; assay: micro serial dilution test; assay type: cell-based, Proteus rettgeri; conditions: Providencia rettgeri, 18 h, read-out: minimal inhibitory concentration (MIC)
# [35] = test system: Shig.equir. T 3; assay: micro serial dilution test; assay type: cell-based; conditions: micro serial dilution (in brackets), about 18 hours, 30° C. or 37° C.; read-out: minimal inhibitory concentration (MIC)
# Description: Two drops of a stock solution of the test compound (antibiotic) in a known concentration were brought into the first hole of a test plate with 9 numbered holes with a sterile Pasteur pipette. After rinsing this pipette three times with a physiological NaCl-solution, two drops of a stock solution of the test organism in a culture medium were brought in all the holes except for hole 8. In the first hole, the solution of the tested compound had been half diluted, then by stirring the liquid in the first hole and adding two drops of this mixture to the second hole and so on until hole 8, dilutions of the test compound solution were obtained in geometrical progression. The hole 9 contained no antibiotic and served for checking the growth of the testogranism in a blank medium. The test plate was incubated at 30° C. or 37° C. for about 18 hours.
# [36] = test system: Bac.Subt.ATCC 6633; assay: micro serial dilution test; assay type: cell-based; conditions: Bacillus subtilis, ATCC6633, 18 h, read-out: minimal inhibitory concentration (MIC)
# [37] = test system: Kleb.pneum. A 809; assay: micro serial dilution test; assay type: cell-based; conditions: Klebsiella pneumoniae, 18 h, read-out: minimal inhibitory concentration (MIC)
# [38] = test system: Bruc.melit. A 488; assay: microbe, parasite or virus in culture; assay type: cell-based; conditions: Brucella melitensis, 18 h, read-out: minimal inhibitory concentration (MIC)
# [39] = test system: Staph.aureus A 321; assay: micro serial dilution test; assay type: cell-based; conditions: Staphylococcus aureus, A321, 18 h, read-out: minimal inhibitory concentration (MIC)
# [40] = test system: Prot.mirab. L 93; assay: micro serial dilution test; assay type: cell-based; conditions: Proteus mirabilis, 18 h, read-out: minimal inhibitory concentration (MIC)
# [41] = test system: Past.multo. A 723; assay: micro serial dilution test; assay type: cell-based; conditions: Pasteurella multocida, 18 h, read-out: minimal inhibitory concentration (MIC)
# [42] = test system: Prot.morg. 2241; assay: micro serial dilution test; assay type: cell-based; conditions: 18 h, read-out: minimal inhibitory concentration (MIC)
# [43] = test system: Salm.dubl. P 43; assay: micro serial dilution test; assay type: cell-based, Salmonella dublin; conditions: Salmonella enterica, 18 h, read-out: minimal inhibitory concentration (MIC)
# [44] = test system: Pseud.aerug. H 10; assay: micro serial dilution test; assay type: cell-based; conditions: 18 h, read-out: minimal inhibitory concentration (MIC)
# [45] = test system: Dipl.pneum. L 54; assay: micro serial dilution test; assay type: cell-based, Diplococcus pneumoniae; conditions: Streptococcus pneumoniae, 18 h, read-out: minimal inhibitory concentration (MIC)
# [46] = test system: Strep.haem. A 266; assay: micro serial dilution test; assay type: cell-based, Streptococcus haemolyticus; conditions: Streptococcus, 18 h, read-out: minimal inhibitory concentration (MIC)
# [47] = test system: Strep. faec. L 80; assay: micro serial dilution test; assay type: cell-based, Streptococcus faecalis; conditions: Enterococcus faecalis, 18 h, read-out: minimal inhibitory concentration (MIC)
structure (smiles),measurement,setting,value
"Cc1nc(CC(=O)N[C@@H]2C(=O)N3C(C(=O)O)=C(CSc4nnnn4C)CS[C@H]23)no1 [41 B, 7-[5-methyl-1,2,4-oxadiazol-3-yl-acetamido]-3-[1-methyl-tetrazol-5-yl-mercaptomethyl]-3-cephem-4-carboxylic acid]",MIC,[1],1.5 µg/mL
same,MIC,[2],100 µg/mL
same,MIC,[3],1 µg/mL
same,MIC,[4],0.5 µg/mL
same,MIC,[5],100 µg/mL
same,MIC,[6],0.6 µg/mL
same,MIC,[7],> 100 µg/mL
same,MIC,[8],1 µg/mL
same,MIC,[9],5 µg/mL
same,MIC,[10],0.6 µg/mL
same,MIC,[11],1 µg/mL
same,MIC,[12],0.25 µg/mL
same,MIC,[13],0.5 µg/mL
same,MIC,[14],0.5 µg/mL
same,MIC,[15],12.5 µg/mL
same,MIC,[16],1.5 µg/mL
same,MIC,[17],1.5 µg/mL
same,MIC,[18],25 µg/mL
same,MIC,[19],100 µg/mL
same,MIC,"[20]; A355, micro serial dilution (in brackets), about 18 hours, 30° C. or 37° C., penicillinase-producing strain",0.9 µg/mL
same,MIC,[21],1.5 µg/mL
same,MIC,[22],0.5 µg/mL
same,MIC,[23],1.5 µg/mL
same,MIC,[24],1 µg/mL
same,MIC,[25],100 µg/mL
same,MIC,[26],0.5 µg/mL
same,MIC,[27],12.5 µg/mL
same,MIC,[28],0.5 µg/mL
CC1(C)S[C@@H]2[C@H](NC(=O)COc3ccccc3)C(=O)N2[C@H]1C(=O)O [Penicillin V],MIC,[29],100 µg/mL
same,MIC,[30],1 µg/mL
same,MIC,[31],100 µg/mL
same,MIC,[32],100 µg/mL
same,MIC,[33],> 100 µg/mL
same,MIC,[34],100 µg/mL
same,MIC,[35],5 µg/mL
same,MIC,[36],0.002 µg/mL
same,MIC,[37],100 µg/mL
same,MIC,[38],1 µg/mL
same,MIC,[39],0.045 µg/mL
same,MIC,[40],10 µg/mL
same,MIC,[41],0.75 µg/mL
same,MIC,"[20]; A355, 18 h",25 µg/mL
same,MIC,[42],> 100 µg/mL
same,MIC,[43],> 100 µg/mL
same,MIC,[44],> 100 µg/mL
same,MIC,[45],1 µg/mL
same,MIC,[46],0.2 µg/mL
same,MIC,[47],5 µg/mL
